Experimental data reported in patent publication US12152029B2, “Crystalline forms of a MAGL inhibitor” (H. Lundbeck A/S, priority 2021, dated 2024).

Experiments:
Format in all cases: physicochemical
[1] = Variable temperature XRPD of Compound (I) form 7; details: VT-XRPD, heating 10° C./min
Protocol: Procedure 4 carried out under non-ambient conditions: For variable temperature (VT-XRPD) experiments the samples were prepared and analysed in an Anton Paar chromed sample holder. A heating/cooling rate of 10° C./min was used. The measurement parameters are as per the standard screening data collection method (detailed in Procedure 3 above). Measurements were taken at the following temperatures: 25, 100, 145, 150, 155, 160, 165, 170, 175, and 25° C.
Compound (I) form 7 obtained using the procedure detailed in Example 2 was subjected to variable temperature X-ray powder diffraction (VT-XRPD), as described in Example 10 (“[…]”).

[2] = Competitive slurry experiments between Compound (I) form 1 and form 7; details: methanol or ethanol, 5° C., room temperature, 50° C., one week
Protocol: The relative thermodynamic stability of Compound (I) form 1 and Compound (I) form 7 was elucidated using competitive slurry experiments as detailed in the following.
Step 1: Compound (I) form 1 (150 mg) and Compound (I) form 7 (150 mg) were mixed in a 20 mL vial. 40 mg (each) of this physical mixture was placed into six 2 mL vials.
Step 2: Using the remaining 60 mg of the physical mixture, saturated solutions with methanol and ethanol, respectively, were produced. The saturated solutions were filtered off.
Step 3: 10 volumes ([…]) of each saturated solution were added to each of the six 2 mL vials mentioned in step 1.
Step 4: One vial for each solvent was kept at 5° C., room temperature and 50° C. for one week.
XRPD analysis carried out on the solids yielded a pattern substantially similar to FIG. 1 for all six vials.

[3] = Dynamic vapour sorption (DVS)
Protocol: Dynamic vapour sorption (DVS) was measured using a SMS DVS Intrinsic moisture sorption analyser changing the relative humidity from 0% RH to 90% RH. The sample temperature was maintained at 25° C. The humidity was controlled by mixing streams of dry and wet nitrogen, with a total flow rate of 200 ml/min. The relative humidity was measured by a calibrated Rotronic probe (dynamic range of 1.0-100% RH), located near the sample. The weight change of the sample as a function of % RH was constantly monitored by a balance.
Typically, 5-30 mg of sample was placed in a tared mesh stainless steel basket under ambient conditions. The sample was loaded and unloaded at 40% RH and 25° C. (typical room conditions).

## O=C(O)c1ccn(C(=O)N2CCC3(CCCN3Cc3ccc(C(F)(F)F)cc3N3CCCC3)CC2)n1 [Compound (I) form 7, 1-(1-(2-(pyrrolidin-1-yl)-4-(trifluoromethyl)benzyl)-1,8-diazaspiro[4.5]decane-8-carbonyl)-1H-pyrazole-3-carboxylic acid]
[1]
  temperature at which conversion to Compound (I) form 1 begins: 160 °C
  temperature at which exclusively Compound (I) form 1 was obtained: 170 °C
[2]
  form conversion in competitive slurry: transforms into Compound (I) form 1 at all temperatures tested
[3]; DVS, 25° C., 0% RH to 90% RH
  water uptake up to 90% RH: ~6%
[3]; DVS, 25° C., up to 90% RH
  hygroscopicity by DVS analysis: moderately hygroscopic
[3]; after DVS cycle
  solid form by XRPD analysis after DVS analysis: still Compound (I) form 7
